From the supplement of paper PMC13380429

Assays:
Details in all cases: 72 h
Calu-3 [1] = experiment: drug sensitivity score (DSS) for viability; higher = more toxic; extreme values may be limits of the assay
U2OS [2] = experiment: as above
Caco-2 [3] = experiment: as above
HepG2 [4] = experiment: as above
Vero E6 [5] = experiment: as above
Calu-3 [6] = experiment: cell viability relative to DMSO; higher = less toxic
U2OS [7] = experiment: as above
Caco-2 [8] = experiment: as above
HepG2 [9] = experiment: as above
Vero E6 [10] = experiment: as above
U2OS [11] = experiment: relative viability EC50 (midpoint between 100% and the lowest measured viability); higher = less toxic
HepG2 [12] = experiment: as above
Calu-3 [13] = experiment: as above
Caco-2 [14] = experiment: as above
Vero E6 [15] = experiment: as above

Row | Compound | drug sensitivity score (Calu-3 [1]) | drug sensitivity score (U2OS [2]) | drug sensitivity score (Caco-2 [3]) | drug sensitivity score (HepG2 [4]) | drug sensitivity score (Vero E6 [5]) | cell viability (Calu-3 [6]; 1 nM) | cell viability (Calu-3 [6]; 10 nM) | cell viability (Calu-3 [6]; 100 nM) | cell viability (Calu-3 [6]; 1000 nM) | cell viability (Calu-3 [6]; 10000 nM) | cell viability (U2OS [7]; 1 nM) | cell viability (U2OS [7]; 10 nM) | cell viability (U2OS [7]; 100 nM) | cell viability (U2OS [7]; 1000 nM) | cell viability (U2OS [7]; 10000 nM) | cell viability (Caco-2 [8]; 1 nM) | cell viability (Caco-2 [8]; 10 nM) | cell viability (Caco-2 [8]; 100 nM) | cell viability (Caco-2 [8]; 1000 nM) | cell viability (Caco-2 [8]; 10000 nM) | cell viability (HepG2 [9]; 1 nM) | cell viability (HepG2 [9]; 10 nM) | cell viability (HepG2 [9]; 100 nM) | cell viability (HepG2 [9]; 1000 nM) | cell viability (HepG2 [9]; 10000 nM) | cell viability (Vero E6 [10]; 1 nM) | cell viability (Vero E6 [10]; 10 nM) | cell viability (Vero E6 [10]; 100 nM) | cell viability (Vero E6 [10]; 1000 nM) | cell viability (Vero E6 [10]; 10000 nM) | relative viability EC50 (U2OS [11]) | relative viability EC50 (HepG2 [12]) | relative viability EC50 (Calu-3 [13]) | relative viability EC50 (Caco-2 [14]) | relative viability EC50 (Vero E6 [15])
1 | O=C(O)c1ccc(-n2nc(-c3ccccc3O)nc2-c2ccccc2O)cc1 [deferasirox] | 0.9 | 3.9 | 2.7 | 5.2 | 2.1 | 99.7% | 100% | 97.4% | 104% | 72.2% | 103% | 102% | 99% | 93.5% | 47.1% | 110% | 92.5% | 104% | 96% | 58.8% | 110% | 93.2% | 106% | 91.6% | 31.3% | 104% | 104% | 106% | 101% | 56.9% | 2.16 µM | 2.17 µM | – | – | –
2 | C[C@]12C[C@H](O)[C@H]3[C@@H](CCC4=CC(=O)CC[C@@]43C)[C@@H]1CC[C@@H]2C(=O)CO [corticosterone] | 0 | 0 | 0 | – | 0 | 101% | 101% | 96.4% | 97.2% | 93.7% | 94.9% | 100% | 92.3% | 96.1% | 97.9% | 92.8% | 114% | 114% | 101% | 91.5% | – | – | – | – | – | 96.1% | 91.6% | 101% | 90.6% | 87.8% | > 10 µM | – | > 10 µM | > 10 µM | > 10 µM
3 | CCCCCCCCCCCCCCCC(=O)O[C@@H]1[C@@H](O)[C@@H](O)[C@@H]([C@H](NC(=O)[C@@H]2C[C@@H](CCC)CN2C)[C@H](C)Cl)O[C@@H]1SC [clindamycin-palmitate] | 0 | 0 | 0 | – | 0 | 99.9% | 102% | 103% | 96.7% | 104% | 94.2% | 99.7% | 97.7% | 101% | 106% | 95% | 94.7% | 90.2% | 101% | 95.4% | – | – | – | – | – | 95.5% | 96.6% | 93.5% | 97% | 103% | > 10 µM | – | > 10 µM | > 10 µM | > 10 µM
4 | CCCCCOc1ccc(-c2ccc(-c3ccc(C(=O)N[C@H]4C[C@@H](O)[C@@H](O)NC(=O)[C@@H]5[C@@H](O)[C@@H](C)CN5C(=O)[C@H]([C@@H](C)O)NC(=O)[C@H]([C@H](O)[C@@H](O)c5ccc(O)cc5)NC(=O)[C@@H]5C[C@@H](O)CN5C(=O)[C@H]([C@@H](C)O)NC4=O)cc3)cc2)cc1 [anidulafungin] | 0.5 | 0 | 1.7 | 1.9 | 0 | 99.6% | 90.1% | 96.6% | 83.2% | 90.5% | 94.8% | 95.6% | 96.8% | 98.1% | 94% | 110% | 106% | 105% | 105% | 59.2% | 97.4% | 104% | 97.6% | 97.1% | 68.7% | 94.8% | 102% | 104% | 101% | 100% | > 10 µM | – | > 10 µM | – | > 10 µM
